Laboratory results published in ChEMBL document CHEMBL1201861, “Genomics of Drug Sensitity in Cancer screening data, Wellcome Trust Sanger Institute”.
pIC50: −log10 of the molar value.

Key:
Assay in all cases: cells
COLO-800 = format: functional, cell-based, Homo sapiens; conditions: Homo sapiens, COLO-800;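 also: growth inhibition of COLO-800 cells, read out with a cell viability assay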
Description: SANGER: Inhibition of human COLO-800 cell growth in a cell viability assay.

COR-L88 = format: functional, cell-based, Homo sapiens; conditions: Homo sapiens, COR-L88;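 also: growth inhibition of COR-L88 cells, read out with a cell viability assay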
Description: SANGER: Inhibition of human COR-L88 cell growth in a cell viability assay.

CTV-1 = format: functional, cell-based, Homo sapiens; conditions: Homo sapiens, CTV-1;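 also: growth inhibition of the cell line, read out with a cell viability assay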
Description: SANGER: Inhibition of human CTV-1 cell growth in a cell viability assay.

D-502MG = format: functional, cell-based, Homo sapiens; conditions: Homo sapiens, D-502MG
Description: SANGER: Inhibition of human D-502MG cell growth in a cell viability assay.

EM-2 = format: functional, cell-based, Homo sapiens; conditions: Homo sapiens, EM-2;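 also: growth inhibition of EM-2 cells, read out with a cell viability assay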
Description: SANGER: Inhibition of human EM-2 cell growth in a cell viability assay.

ETK-1 = format: functional, cell-based, Homo sapiens; conditions: Homo sapiens, ETK-1;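 also: growth inhibition of human ETK-1 cells, read out with a cell viability assay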
Description: SANGER: Inhibition of human ETK-1 cell growth in a cell viability assay.

EW-18 = format: functional, cell-based, Homo sapiens; conditions: Homo sapiens, EW-18; read-out: IC50;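 also: growth inhibition of EW-18 cells, read out by a cell viability assay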
Description: SANGER: Inhibition of human EW-18 cell growth in a cell viability assay.

GAK = format: functional, cell-based, Homo sapiens; conditions: Homo sapiens, GAK;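 also: cell growth inhibition read out by a cell viability assay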
Description: SANGER: Inhibition of human GAK cell growth in a cell viability assay.

GI-1 = format: functional, cell-based, Homo sapiens; conditions: Homo sapiens, GI-1;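 also: growth inhibition of human GI-1 cells, measured with a cell viability readout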
Description: SANGER: Inhibition of human GI-1 cell growth in a cell viability assay.

GI-ME-N = format: functional, cell-based, Homo sapiens; conditions: Homo sapiens, GI-ME-N;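 also: growth inhibition of human GI-ME-N cells, read out with a cell viability assay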
Description: SANGER: Inhibition of human GI-ME-N cell growth in a cell viability assay.

HCC1187 = format: functional, cell-based, Homo sapiens; conditions: Homo sapiens, HCC1187;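 also: growth inhibition of HCC1187 cells, read out with a cell viability assay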
Description: SANGER: Inhibition of human HCC1187 cell growth in a cell viability assay.

HCE-4 = format: functional, cell-based; conditions: Homo sapiens;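 also: cell viability assay measuring inhibition of growth in the human HCE-4 cell line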
Description: SANGER: Inhibition of human HCE-4 cell growth in a cell viability assay.

HCE-T = format: functional, cell-based, Homo sapiens; conditions: Homo sapiens, HCE-T;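 also: cell viability assay read-out, reporting inhibition of HCE-T cell growth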
Description: SANGER: Inhibition of human HCE-T cell growth in a cell viability assay.

HDLM-2 = format: functional, cell-based, Homo sapiens; conditions: Homo sapiens, HDLM-2;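 also: cell viability assay measuring suppression of HDLM-2 proliferation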
Description: SANGER: Inhibition of human HDLM-2 cell growth in a cell viability assay.

IA-LM = format: functional, cell-based; conditions: Homo sapiens;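 also: cell viability assay measuring growth inhibition of human IA-LM cells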
Description: SANGER: Inhibition of human IA-LM cell growth in a cell viability assay.

IST-SL1 = format: functional, cell-based, Homo sapiens; conditions: Homo sapiens, IST-SL1;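 also: growth inhibition of human IST-SL1 cells, read out with a cell viability assay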
Description: SANGER: Inhibition of human IST-SL1 cell growth in a cell viability assay.

J-RT3-T3-5 = format: functional, cell-based, Homo sapiens; conditions: Homo sapiens, J-RT3-T3-5;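 also: cell viability assay measuring growth inhibition of human J-RT3-T3-5 cells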
Description: SANGER: Inhibition of human J-RT3-T3-5 cell growth in a cell viability assay.

KG-1 = format: functional, cell-based, Homo sapiens; conditions: Homo sapiens, KG-1;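 also: growth inhibition of KG-1 cells, read out by a cell viability assay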
Description: SANGER: Inhibition of human KG-1 cell growth in a cell viability assay.

KGN = format: functional, cell-based, Homo sapiens; conditions: Homo sapiens, KGN;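 also: growth inhibition of KGN cells, read out with a cell viability assay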
Description: SANGER: Inhibition of human KGN cell growth in a cell viability assay.

KLE = format: functional, cell-based; conditions: Homo sapiens;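 also: growth inhibition of human KLE cells, read out with a cell viability assay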
Description: SANGER: Inhibition of human KLE cell growth in a cell viability assay.

KM12 = format: functional, cell-based, Homo sapiens; conditions: Homo sapiens, KM12;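 also: KM12 cell growth inhibition, read out with a cell viability assay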
Description: SANGER: Inhibition of human KM12 cell growth in a cell viability assay.

KU812 cell line = format: functional, cell-based, Homo sapiens; conditions: Homo sapiens, KU812;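 also: growth inhibition of KU812 cells, read out with a cell viability assay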
Description: SANGER: Inhibition of human KU812 cell growth in a cell viability assay.

KURAMOCHI = format: functional, cell-based, Homo sapiens; conditions: Homo sapiens, KURAMOCHI;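 also: growth inhibition of KURAMOCHI cells, read out with a cell viability assay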
Description: SANGER: Inhibition of human KURAMOCHI cell growth in a cell viability assay.

KY821 = format: functional, cell-based, Homo sapiens; conditions: Homo sapiens, KY821;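 also: growth inhibition of human KY821 cells, read out by a cell viability assay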
Description: SANGER: Inhibition of human KY821 cell growth in a cell viability assay.

LB2518-MEL = format: functional, cell-based; conditions: Homo sapiens;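 also: growth inhibition of human LB2518-MEL cells, measured with a cell viability assay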
Description: SANGER: Inhibition of human LB2518-MEL cell growth in a cell viability assay.

LXF-289 cell line = format: functional, cell-based; conditions: Homo sapiens
Description: SANGER: Inhibition of human LXF-289 cell growth in a cell viability assay.

MMAC-SF = format: functional, cell-based; conditions: Homo sapiens;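 also: growth inhibition of human MMAC-SF cells, read out with a cell viability assay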
Description: SANGER: Inhibition of human MMAC-SF cell growth in a cell viability assay.

MN-60 = format: functional, cell-based, Homo sapiens; conditions: Homo sapiens, MN-60;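 also: growth inhibition of the MN-60 cell line, determined with a cell viability assay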
Description: SANGER: Inhibition of human MN-60 cell growth in a cell viability assay.

MS-1 = format: functional, cell-based, Homo sapiens; conditions: Homo sapiens, MS-1;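 also: growth inhibition of MS-1 cells, read out by cell viability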
Description: SANGER: Inhibition of human MS-1 cell growth in a cell viability assay.

MZ7-mel = format: functional, cell-based, Homo sapiens; conditions: Homo sapiens, MZ7-mel;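 also: growth inhibition of human MZ7-mel cells, measured by a cell viability assay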
Description: SANGER: Inhibition of human MZ7-mel cell growth in a cell viability assay.

NB5 = format: functional, cell-based, Homo sapiens; conditions: Homo sapiens, NB5;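 also: growth inhibition of NB5 cells, read out as cell viability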
Description: SANGER: Inhibition of human NB5 cell growth in a cell viability assay.

NCI-H1355 = format: functional, cell-based, Homo sapiens; conditions: Homo sapiens, NCI-H1355;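 also: growth inhibition of human NCI-H1355 cells, read out by a cell viability assay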
Description: SANGER: Inhibition of human NCI-H1355 cell growth in a cell viability assay.

NCI-H226 = format: functional, cell-based, Homo sapiens; conditions: Homo sapiens, NCI-H226;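 also: cell viability read-out used to gauge growth inhibition of the cells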
Description: SANGER: Inhibition of human NCI-H226 cell growth in a cell viability assay.

NCI-N87 = format: functional, cell-based; conditions: Homo sapiens;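 also: growth inhibition of human NCI-N87 cells, read out with a cell viability assay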
Description: SANGER: Inhibition of human NCI-N87 cell growth in a cell viability assay.

NTERA-2-cl-D1 = format: functional, cell-based, Homo sapiens; conditions: Homo sapiens, NTERA-2-cl-D1;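 also: inhibition of cell growth, measured with a cell viability assay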
Description: SANGER: Inhibition of human NTERA-S-cl-D1 cell growth in a cell viability assay.

OCI-AML2 = format: functional, cell-based, Homo sapiens; conditions: Homo sapiens, OCI-AML2;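 also: growth inhibition of OCI-AML2 cells, read out with a cell viability assay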
Description: SANGER: Inhibition of human OCI-AML2 cell growth in a cell viability assay.

OCUB-M = format: functional, cell-based; conditions: Homo sapiens;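 also: growth inhibition of the cancer cell line, read out through a cell viability assay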
Description: SANGER: Inhibition of human OCUB-M cell growth in a cell viability assay.

OVCAR-4 = format: functional, cell-based, Homo sapiens; conditions: Homo sapiens, OVCAR-4;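 also: growth inhibition of human OVCAR-4 cells, measured with a cell viability assay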
Description: SANGER: Inhibition of human OVCAR-4 cell growth in a cell viability assay.

P31-FUJ = format: functional, cell-based, Homo sapiens; conditions: Homo sapiens, P31-FUJ;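 also: growth inhibition of P31-FUJ cells, read out with a viability assay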
Description: SANGER: Inhibition of human P31-FUJ cell growth in a cell viability assay.

PC-3 = format: functional, cell-based; conditions: Homo sapiens;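 also: cell viability assay measuring growth inhibition of PC-3 cells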
Description: SANGER: Inhibition of human PC-3 cell growth in a cell viability assay.

QIMR-WIL = format: functional, cell-based, Homo sapiens; conditions: Homo sapiens, QIMR-WIL;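 also: growth inhibition of QIMR-WIL cells, read out with a cell viability assay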
Description: SANGER: Inhibition of human QIMR-WIL cell growth in a cell viability assay.

RXF 393 = format: functional, cell-based, Homo sapiens; conditions: Homo sapiens, RXF 393;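 also: growth inhibition of human RXF 393 cells, read out with a cell viability assay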
Description: SANGER: Inhibition of human RXF393 cell growth in a cell viability assay.

Ramos-2G6-4C10 = format: functional, cell-based, Homo sapiens; conditions: Homo sapiens, Ramos-2G6-4C10;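 also: growth inhibition of the cell line, measured by a cell viability read-out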
Description: SANGER: Inhibition of human Ramos-2G6-4C10 cell growth in a cell viability assay.

SH-4 = format: functional, cell-based; conditions: Homo sapiens;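 also: growth inhibition of SH-4 cells, read out with a cell viability assay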
Description: SANGER: Inhibition of human SH-4 cell growth in a cell viability assay.

SNB-75 = format: functional, cell-based, Homo sapiens; conditions: Homo sapiens, SNB-75;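 also: cell viability assay measuring growth inhibition of human SNB-75 cells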
Description: SANGER: Inhibition of human SNB75 cell growth in a cell viability assay.

SNU-C2B = format: functional, cell-based; conditions: Homo sapiens;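 also: cell viability readout used to measure compound-driven suppression of SNU-C2B cell proliferation, IC50 marking half-maximal growth inhibition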
Description: SANGER: Inhibition of human SNU-C2B cell growth in a cell viability assay.

SW 962 = format: functional, cell-based, Homo sapiens; conditions: Homo sapiens, SW 962;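 also: growth inhibition of human SW962 cells, read out by a cell viability assay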
Description: SANGER: Inhibition of human SW962 cell growth in a cell viability assay.

A4-Fuk = format: functional, cell-based, Homo sapiens; conditions: Homo sapiens, A4-Fuk;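 also: growth inhibition of A4-Fuk cells, read out by a cell viability assay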
Description: SANGER: Inhibition of human A4-Fuk cell growth in a cell viability assay.

U-266 = format: functional, cell-based, Homo sapiens; conditions: Homo sapiens, U-266
Description: SANGER: Inhibition of human U-266 cell growth in a cell viability assay.

UACC-257 = format: functional, cell-based, Homo sapiens; conditions: Homo sapiens, UACC-257
Description: SANGER: Inhibition of human UACC-257 cell growth in a cell viability assay.

no-11 = format: functional, cell-based, Homo sapiens; conditions: Homo sapiens;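 also: growth inhibition of human NO-11 cells, read out with a cell viability assay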
Description: SANGER: Inhibition of human no-11 cell growth in a cell viability assay.

COLO-668 = format: functional, cell-based, Homo sapiens; conditions: Homo sapiens, COLO-668
Description: SANGER: Inhibition of human COLO-668 cell growth in a cell viability assay.

What does the source list for `C/C(=C\c1csc(C)n1)[C@@H]1C[C@@H]2O[C@]2(C)CCC[C@H](C)[C@H](O)[C@@H](C)C(=O)C(C)(C)[C@@H](O)CC(=O)O1` [PATUPILONE]?
pIC50 (COLO-800): < 7.49; pIC50 (COR-L88): < 7.49; pIC50 (CTV-1): 8.29; pIC50 (D-502MG): < 7.49; pIC50 (EM-2): < 7.49; pIC50 (ETK-1): 9.01; pIC50 (EW-18): 8.58; pIC50 (GAK): 7.87; pIC50 (GI-1): 8.61; pIC50 (GI-ME-N): 8.22; pIC50 (HCC1187): 7.65; pIC50 (HCE-4): 8.88; pIC50 (HCE-T): 8.39; pIC50 (HDLM-2): 7.71; pIC50 (IA-LM): 9.41; pIC50 (IST-SL1): 8.20; pIC50 (J-RT3-T3-5): 7.87; pIC50 (KG-1): 8.29; pIC50 (KGN): 9.21; pIC50 (KLE): < 7.49; pIC50 (KM12): 8.65; pIC50 (KU812 cell line): 8.46; pIC50 (KURAMOCHI): 8.22; pIC50 (KY821): < 7.49; pIC50 (LB2518-MEL): 7.75; pIC50 (LXF-289 cell line): 9.64; pIC50 (MMAC-SF): 7.64; pIC50 (MN-60): < 7.49; pIC50 (MS-1): 7.99; pIC50 (MZ7-mel): 7.77; pIC50 (NB5): 7.97; pIC50 (NCI-H1355): 9.04; pIC50 (NCI-H226): < 7.49; pIC50 (NCI-N87): 7.52; pIC50 (NTERA-2-cl-D1): 9.14; pIC50 (OCI-AML2): 8.51; pIC50 (OCUB-M): 8.99; pIC50 (OVCAR-4): 8.79; pIC50 (P31-FUJ): < 7.49; pIC50 (PC-3): 7.63; pIC50 (QIMR-WIL): 8.93; pIC50 (RXF 393): 8.47; pIC50 (Ramos-2G6-4C10): 8.02; pIC50 (SH-4): 8.11; pIC50 (SNB-75): 8.52; pIC50 (SNU-C2B): 8.37; pIC50 (SW 962): 8.98; pIC50 (A4-Fuk): 8.96; pIC50 (U-266): 8.01; pIC50 (UACC-257): 7.53; pIC50 (no-11): < 7.49; pIC50 (COLO-668): < 7.49
